The record followed here is patent US20100278849A1, “PROSTATIC ACID PHOSPHATASE ANTIGENS” (priority 2004, published 2010).

In one assay the test system is HLA-DRβ1*0401. As to the kind of experiment: Proliferation of splenocytes from immunised HLA-DR4 mice with peptide-pulsed BM-DC (tritiated thymidine). The class given is cell-based. As to the method:
(§1) HLA-A2.1/K^b mice were immunised with an emulsion consisting of 100 μg of the putative class-I peptide epitope and 100 μg of non-specific class-II peptide derived from hepatitis B virus in 50% incomplete Freund's adjuvant (IFA). HLA-DR4- and HLA-DR1-transgenic mice were immunised twice at one week interval with 100 μg of class-II peptide emulsified in 50% incomplete Freund's adjuvant (IFA) and 50% PBS. All vaccine were delivered as a 100 μl intradermal bolus inoculum at the base of the tail.
(§2) 0DC were generated using a method adapted from Inaba et al (Inaba et al. 1992). Briefly, femurs and tibias were harvested aseptically from non-immunised DR1 or DR4 transgenic mice and placed in sterile PBS supplemented with 50 IU/ml penicillin, 50 μg/ml streptomycin, and 0.25 μg/ml fungizone. The marrow was flushed out of the bone using BM-DC media (RPMI 1640 medium supplemented with 2 mM glutamine, 5% FCS, 10 mM Hepes, 501M 2-ME, 50 μg/ml penicillin, 50 μg/ml streptomycin, 0.25 μg/ml fungisone and 10% of supernatant collected from X-63 cells). The cells were washed once in BM-DC media and plated in 24-well plates at 10^6/well in 1 ml DC media and incubated at 37° C. in a 5% CO2 humidified atmosphere. On days 2 and 4, the non-adherent cells (T cells, B cells, granulocytes) were removed, and the remaining cells were cultured in fresh DC medium. After 7-9 days, clusters of loosely adherent DC were dislodged and collected by gently pipetting, before being washed and seeded in 24-well plates at 0.5×10^6 cells/well in 1 ml DC media. Peptides were added at 1 μg/well and the plates were incubated at 37° C. 1 μg/ml of LPS was added after 5 hours, and the plates were incubated overnight at 37° C. in a 5% CO2 in air-humidified atmosphere.
(§3) After 6 days, the spleens from immunised animals were collected and the cells flushed out using T cell media (RPMI+10% FCS+20 mM HEPES buffer+50 μM 2-mercaptoethanol+50 U/ml penicillin/streptomycin+0.25 μg/ml fungizone). The remaining splenic tissue was digested using an enzyme cocktail (0.1 U/ml DNAase (Sigma)+1.6 mg/ml collagenase (Sigma)) for 1 hour at 37° C. The cell suspension obtained was pooled with the flushed cells, washed once, and the splenocytes were plated in 24 well plates with 10 μg/ml of peptide at a density of 2.5×10^6/ml for FVB/N-DR1 or 3.5×10^6/ml for C57BL/6-DR4. Cells were also cultured with an irrelevant peptide as a control. To measure cytokine production, culture supernatants were collected on day 2 and 5 of the culture for the measurement of cytokine by ELISA.
[…] CD8+ T cells were depleted from the cell suspension using anti-CD8+ antibody coupled with magnetic beads (Dynal, UK) as per the manufacturers instructions. Cells were then washed in PBS and resuspended at 5×10^5/ml in T cell medium. 100 μl of T cells was then added to all wells. Anti-DR antibody (L243) or isotype control were added to some wells to confirm the MHC specificity of the T-cell response. LPS-treated dendritic cells were harvested, washed and incubated in 1 ml of DC medium with the addition of 10 íg of peptide at 37° C. for 5 hours. After washing, 10^3 peptide-pulsed DC were added to the relevant wells of lymphocyte cultures in 50 íl media. These plates were then incubated for 3 days at 37° C. in a 5% CO2 in air-humidified atmosphere. Tritriated thymidine was then added to the culture and incubated again for 18 hours. Plates were harvested onto 96 Uni/Filter (Packard), the scintillation liquid (Microscint 0, Packard) was added and the plates were counted on a Top-Count counter (Packard). Results are expressed in counts per minute (cpm) and as a means of the triplicate wells. Statistical analysis was performed using unpaired Student's t test. […]

Assay [1] relates to IFN-γ. The assay is described as follows: Cytokine production by splenocytes of immunised C57BL/6-DR4 mice, ELISA. The class given is cell-based. The note with it: relevant versus irrelevant peptide. Here is the method:
as §3
(§4) Aliquots of supernatants were removed from CTL cultures on days 1 and 5 and on days 2 and 5 from CD4′ T cell cultures and stored at −20° C. until required. ELISA was used to quantitate concentrations of murine IFN-γ and IL-5 (R&D systems, UK).
We further investigated HLA-DR class-II restricted responses to PAP peptides that were predicted to bind to HLA-DR1 and HLA-DR4 according to the evidence-based computer assisted algorithm […]. The peptides displaying high binding scores for both HLA-DR alleles were selected and further studied (Table 1). C57BL/6-DR4 mice were immunised with these predicted HLA-DR-restricted PAP and the proliferative and IFN-γ response to peptide stimulation in vitro was monitored by proliferation assays and cytokine measurements. PAP. 64 and PAP.

The test system of another assay is HLA-DRβ1*0101. The assay is described as follows: Proliferation of splenocytes from immunised HLA-DR1 mice with peptide-pulsed BM-DC (tritiated thymidine). The class given is cell-based. The note with it: responding/total mice, after re-stimulation in vitro with relevant peptide. As to the method: as §1, §2, §3
Splenocytes from immunised animals cultured for 6 days in the presence of 10 μg of the test peptide were harvested, washed and counted. CD8+ T cells were depleted from the cell suspension using anti-CD8+ antibody coupled with magnetic beads (Dynal, UK) as per the manufacturers instructions. Cells were then washed in PBS and resuspended at 5×10^5/ml in T cell medium. 100 μl of T cells was then added to all wells. Anti-DR antibody (L243) or isotype control were added to some wells to confirm the MHC specificity of the T-cell response. LPS-treated dendritic cells were harvested, washed and incubated in 1 ml of DC medium with the addition of 10 íg of peptide at 37° C. for 5 hours. After washing, 10^3 peptide-pulsed DC were added to the relevant wells of lymphocyte cultures in 50 íl media. […] Plates were harvested onto 96 Uni/Filter (Packard), the scintillation liquid (Microscint 0, Packard) was added and the plates were counted on a Top-Count counter (Packard). […]

Assay [2] has as its system IFN-γ. As to the kind of experiment: Cytokine production by splenocytes of immunised FVB/N-DR1 mice, ELISA. The class given is cell-based. Here is the method: as §3, §4
The test system of assay [3] is IFN-γ. The assay is described as follows: IFN-γ ELISPOT of rested CD8-depleted T cells with peptide-pulsed BM-DC. In kind it is cell-based, mice. The note with it: BM-DC pulsed with PAP.161 versus Flu peptide.
A further assay relates to LCL cells. As to the kind of experiment: 51Chromium cytotoxicity assay of splenocytes from PAP.135 immunised mice against LCL cells. In kind it is cell-based, human. The settings on record: LCL express HLA-A2 but not PAP. As to the method: (§5) LNCaP is a human prostate cancer cell-line known to express HLA-A2 and PAP. Cells were propagated in RPMI 1640 media (GibcoBRL, UK) supplemented with 10% foetal calf serum (BioWhittaker, Belgium), 100 U/ml penicillin with 100 μg/ml streptomycin (GibcoBRL, UK), 5 ng/ml hydrocortisone and 5 ng/ml testosterone (Sigma, USA). […] Cells were grown in suspension in tissue culture flasks containing RPMI 1640 (GibcoBRL, UK) with 10% foetal calf serum (FCS) (BioWhittaker, Belgium) and 1% L-glutamine supplement (GibcoBRL, UK).
(§6) Target cells were pulsed overnight with test peptide or an irrelevant HLA-A2 binding epitope and labelled for 1 hour with 1.85 MBq ^51Chromium. For cytotoxicity assays involving tumour cell-lines, cells were treated with 100 U/ml IFN-γ for 24 hours prior to ^51Chromium labelling. Target cells were washed and allowed to stand in CTL media for 1 hour before washing again. Target cells and effector CTLs were co-incubated at various ratios in 96-well plates in a final volume of 200 μl for 4 hours at 37° C. HLA-A2 dependence was determined by the addition of anti-HLA-A2 antibody (Serotec, UK) to some wells. Maximum and spontaneous release of ^51Chromium was ascertained by incubating target cells with 2% SDS or media alone, respectively. Supernatants were harvested and analysed using a Top Count™ gamma counter (Can berra-Packard, USA). Specific lysis was determined as follows: […]

A further assay relates to RMAS-HLA-A2 cells. The assay is described as follows: 51Chromium cytotoxicity assay of splenocytes from HLA-A2.1/Kb mice against peptide-pulsed RMAS cells. The class given is cell-based. The settings on record: for % cytoxicity at 50:1 ratio RMAS + irrel.: targets pulsed with irrelevant peptide.
Another assay has as its target HLA-A2*0201 (Homo sapiens, UniProt P04439, D140Y/D185E/D98H/E176V/E277Q/G131W/G231S/I119V/I121R/I166T/I218V/L300P/L318F/N151K/N90K/P208A/P217A/Q86G/Q94H/R138H/R169H/T345S). The class given is cell-based. The note with it: peptide at 100, 10 and 1 μM; compared with positive control influenza M1 peptide; three independent experiments.
The test system of assay [4] is IFN-γ. As to the kind of experiment: IFN-γ release by splenocyte (CTL) cultures, ELISA. In kind it is cell-based, mice. As to the method: After at least 7 and not more than 10 days, immunised animals were killed, and the spleens recovered into transport media. Spleens were gently macerated and flushed by injecting 10 ml “CTL culture media” (RPMI 1640, 1% L-glutamine, 10% FCS (PAA labs), 20 mM Hepes, 50 μM 2-mercaptoethanol, 50 U/ml penicillin, 500 U/ml streptomycin and 0.25 μg/ml fungizone) under pressure through a fine bore hypodermic needle introduced through the spleen capsule, thus facilitating the isolation of splenocytes. The remaining tissue was diced and digested for 1 hour at 37° C. using an enzyme cocktail (IMDM containing […] 2-ME, 100 U/ml penicillin+1000 U/ml streptomycin, 8 mg/ml collagenase and 1% DNAse). The flushed and digested cell populations were washed and pooled, and then seeded into 15 wells of a 24 well-plate at 5×10^6 cells/well in 2 ml of media containing 20 μg peptide. The test peptide was added to 12 wells, while 3 wells received an irrelevant class-I peptide as a control. Splenocyte cultures were incubated for 5 days at 37° C.
as §4
Figures represent the ratio of IFN-γ released by splenocytes stimulated in vitro by PAP.135 to IFN-γ released by splenocytes stimulated in vitro by an irrelevant HLA-A2*0201 CTL epitope. The mean results of 10 experiments using splenocytes derived from PAP.135-immunised mice are given, and 1 in which splenocytes derived from non-immunised (naive mice) were used.

The test system of another assay is LNCaP cells. The assay is described as follows: 51Chromium cytotoxicity assay of splenocytes from PAP.135 immunised mice against LNCaP cells. The note with it: LNCaP express HLA-A2 and PAP. In kind it is cell-based, human. Here is the method: (c): Cytotoxicity against LNCaP cells by splenocytes derived from PAP.135 immunised mice. Results are representative of 10 mice and 2 individual experiments.
as §5
as §6, with “Target cells and effector CTLs were co-incubated at various ratios in 96-well plates in a final volume of 200 μl for 4 hours at 37° C.” left out, “Maximum and spontaneous release of ^51Chromium was ascertained by incubating target cells with 2% SDS or media alone, respectively.” left out

Where “and” joins values, the source holds several entries; their conditions need not be identical. Identical values can stand only once. Entries after “also recorded” stand apart in the source; their conditions may differ.

For “CPRFQELESETLKSE (listed as Homo sapiens) [PAP.161]”, the “proliferative response to peptide-pulsed BM-DC” value in the assay with HLA-DRβ1*0401 (7 days in vitro stimulation, CD8+ T cells removed, rested 7 days) was “Significant proliferation; also recorded: consistently confirmed; also recorded: responded specifically”. For the same sequence, the “effect of anti-HLA-DR antibody (L243) on proliferation” value in the assay on HLA-DRβ1*0401 (not blocked by isotype control) is recorded as “blocked in the presence of HLA-DR antibody; also recorded: blocked by the addition of L243 antibody; also recorded: inhibited by the addition of L243 antibody; also recorded: blocked by the presence of L243 antibody”. The “proliferation of splenocytes from immunised HLA-DR4 mice” value in the assay with HLA-DRβ1*0401 (re-stimulated in vitro with peptide for 5 days) is given as “Specific proliferation”. Further, the “number of HLA-DR4 mice whose splenocytes demonstrated specific proliferation” value in the assay with HLA-DRβ1*0401 (responding/total mice, after re-stimulation in vitro with relevant peptide) was 6 out of 8 and 4/6. In the assay on IFN-γ [1], the “IFN-γ production by splenocytes” value is “produced in large quantities”. For the same sequence, the “number of HLA-DR1 mice whose splenocytes demonstrated specific proliferation” value with HLA-DRβ1*0101 was 3 out of 6 and 3/6. Besides, the “IFN-γ or IL-50 (cytokine) production of splenocytes” value in the assay on IFN-γ [2] is on record as “no production of cytokines could be detected in high enough levels”. Also, in the assay on IFN-γ [3], the “IFN-γ production, ELISPOT” value is “high amount of IFN-γ in peptide specific manner; also recorded: producing IFN-γ”.

“ILLWQPIPV (listed as Homo sapiens) [PAP.135]”: the “lysis of LCL cells” value in the assay with LCL cells is given as “not susceptible to lysis”. Further, the “inhibition of peptide specific lysis by HLA-A2 blocking antibody” value in the assay with RMAS-HLA-A2 cells (PAP.135-pulsed targets, splenocytes from PAP.135 immunised mice, two separate experiments) is “approximately 80%”. Further, the “lysis of PAP.135 pulsed RMAS-HLA-A2 cells” value is listed as “lysed RMAS-HLA-A2 cells, pulsed with PAP.135 in a dose dependent manner; also recorded: highly cytotoxic” with RMAS-HLA-A2 cells (splenocytes from PAP.135 immunised mice) and “failed to demonstrate cytotoxicity; also recorded: unable to lyse target cells” in the assay on RMAS-HLA-A2 cells (splenocytes from non-immunised (naïve) mice stimulated by PAP.135 in vitro). Further, the “% cytoxicity at 50:1 ratio RMAS + irrel.” value in the assay with RMAS-HLA-A2 cells (splenocytes from PAP.135-immunised mice, 50:1) was 2% and 7% and 9% and 4% and 1% and 5% and 3%; in the assay with RMAS-HLA-A2 cells (splenocytes from naïve (non-immunised) mouse, 50:1) it was 11%. The “% cytoxicity at 50:1 ratio RMAS + PAP.135” value in the assay with RMAS-HLA-A2 cells (splenocytes from naïve (non-immunised) mouse stimulated with PAP.135 in vitro, 50:1) amounted to 13%. The “binding to HLA-A2 (T2 cells)” value with HLA-A2*0201 is listed as “strong binding; also recorded: strongest HLA-A2 binding; also recorded: higher affinity to T2 cells”. Further, the “IFN-γ release by splenocytes stimulated in vitro” value with IFN-γ [4] (PAP.135-immunised mice, versus irrelevant epitope, day 5) is reported as “significantly more IFN-γ; also recorded: significantly upregulated”; in the assay on IFN-γ [4] (non-immunised (naïve) mice), “independent of the peptide used for in vitro stimulation”. Moreover, the “IFN-γ release (PAP.135:irrel.)” value in the assay with IFN-γ [4] (ratio, splenocytes from naïve (non-immunised) mouse) is listed as 1.1. Moreover, the “lysis of LNCaP cells” value with LNCaP cells was “dose-dependent lysis; also recorded: highly cytotoxic”.
